Measurements published in ChEMBL document CHEMBL3885881, “DrugMatrix”.

Organism: Rattus norvegicus
Experiment: DrugMatrix - Regimen: Daily Repeat
Format: toxicity, organism-based, Sprague-Dawley
Parameters: regimen Daily Repeat, gender Male, age 6-8 weeks
Conditions: in vivo, po, route oral GAVAGE, […]; for ABSOLUTE BASOPHIL / ABSOLUTE EOSINOPHIL / ABSOLUTE LYMPHOCYTE / ABSOLUTE MONOCYTE / ABSOLUTE SEGMENTED NEUTROPHIL / BASOPHIL / EOSINOPHIL / ERYTHROCYTE COUNT / HEMATOCRIT / HEMOGLOBIN / LEUKOCYTE COUNT / LYMPHOCYTE / MEAN CORPUSCULAR HEMOGLOBIN / MEAN CORPUSCULAR HEMOGLOBIN CONCENTRATION / MEAN CORPUSCULAR VOLUME / MONOCYTE / NEUTROPHIL / NUCLEATED RED BLOOD CELLS / PLATELET COUNT: tissue Blood; for ALANINE AMINOTRANSFERASE / ALBUMIN / ALKALINE PHOSPHATASE / ASPARTATE AMINOTRANSFERASE / BLOOD UREA NITROGEN / CARBON DIOXIDE / CHLORIDE / CHOLESTEROL / CREATINE PHOSPHOKINASE / CREATININE / GLUCOSE / LACTATE DEHYDROGENASE / LIPASE / PHOSPHORUS / POTASSIUM / SODIUM / TOTAL BILIRUBIN / TOTAL PROTEIN / URIC ACID: tissue Plasma
[1] = 0 mg/kg, 72 h, dose level Control, time 3 day
[2] = 0 mg/kg, dose level Control, time 7 day
[3] = 30 mg/kg, 72 h, dose level Low, time 3 day

SMILES: S=C=Nc1cccc2ccccc12 [1-NAPHTHYLISOTHIOCYANATE]
- ABSOLUTE BASOPHIL [1]: 0 CELLS/uL
- ABSOLUTE EOSINOPHIL [1]: 47.5 CELLS/uL
- ABSOLUTE LYMPHOCYTE [1]: 9600.67 CELLS/uL
- ABSOLUTE MONOCYTE [1]: 195.5 CELLS/uL
- ABSOLUTE SEGMENTED NEUTROPHIL [1]: 839.67 CELLS/uL
- BASOPHIL [1]: 0%
- EOSINOPHIL [1]: 0.5%
- ERYTHROCYTE COUNT [1]: 5.26 x10E6/uL
- HEMATOCRIT [1]: 34.48%
- HEMOGLOBIN [1]: 12.77 G/DL
- LEUKOCYTE COUNT [1]: 10.68 x10E3/uL
- LYMPHOCYTE [1]: 89.67%
- MEAN CORPUSCULAR HEMOGLOBIN [1]: 24.3 pg
- MEAN CORPUSCULAR HEMOGLOBIN CONCENTRATION [1]: 37.05 G/DL
- MEAN CORPUSCULAR VOLUME [1]: 65.62 fL
- MONOCYTE [1]: 1.83%
- NEUTROPHIL [1]: 8%
- NUCLEATED RED BLOOD CELLS [1]: 0.17 /100WBC
- PLATELET COUNT [1]: 1038.67 x10E3/uL
- ALANINE AMINOTRANSFERASE [1]: 65.17 u/L
- ALBUMIN [1]: 4.2 G/DL
- ALKALINE PHOSPHATASE [1]: 377.5 u/L
- ASPARTATE AMINOTRANSFERASE [1]: 90.5 u/L
- BLOOD UREA NITROGEN [1]: 13.5 mg/dL
- CARBON DIOXIDE [1]: 31.17 mmol/L
- CHLORIDE [1]: 98.33 MEQ/L
- CHOLESTEROL [1]: 66.33 mg/dL
- CREATINE PHOSPHOKINASE [1]: 478.83 u/L
- CREATININE [1]: 0.19 mg/dL
- GLUCOSE [1]: 155.17 mg/dL
- LACTATE DEHYDROGENASE [1]: 107.5 u/L
- LIPASE [1]: 10.33 u/L
- PHOSPHORUS [1]: 9.25 mg/dL
- POTASSIUM [1]: 5.43 MEQ/L
- SODIUM [1]: 142.05 MEQ/L
- TOTAL BILIRUBIN [1]: 0.12 mg/dL
- TOTAL PROTEIN [1]: 5.95 G/DL
- URIC ACID [1]: 0.62 mg/dL
- ABSOLUTE BASOPHIL [2]: 0 CELLS/uL
- ABSOLUTE EOSINOPHIL [2]: 43.5 CELLS/uL
- ABSOLUTE LYMPHOCYTE [2]: 9369.83 CELLS/uL
- ABSOLUTE MONOCYTE [2]: 196.17 CELLS/uL
- ABSOLUTE SEGMENTED NEUTROPHIL [2]: 723.83 CELLS/uL
- BASOPHIL [2]: 0%
- EOSINOPHIL [2]: 0.5%
- ERYTHROCYTE COUNT [2]: 5.09 x10E6/uL
- HEMATOCRIT [2]: 32.42%
- HEMOGLOBIN [2]: 13.1 G/DL
- LEUKOCYTE COUNT [2]: 10.33 x10E3/uL
- LYMPHOCYTE [2]: 90.83%
- MEAN CORPUSCULAR HEMOGLOBIN [2]: 25.75 pg
- MEAN CORPUSCULAR HEMOGLOBIN CONCENTRATION [2]: 40.43 G/DL
- MEAN CORPUSCULAR VOLUME [2]: 63.62 fL
- MONOCYTE [2]: 1.67%
- NEUTROPHIL [2]: 7%
- NUCLEATED RED BLOOD CELLS [2]: 0 /100WBC
- PLATELET COUNT [2]: 1106.5 x10E3/uL
- ALANINE AMINOTRANSFERASE [2]: 48.67 u/L
- ALBUMIN [2]: 4.13 G/DL
- ALKALINE PHOSPHATASE [2]: 275.17 u/L
- ASPARTATE AMINOTRANSFERASE [2]: 73.17 u/L
- BLOOD UREA NITROGEN [2]: 13.17 mg/dL
- CARBON DIOXIDE [2]: 27.5 mmol/L
- CHLORIDE [2]: 99.67 MEQ/L
- CHOLESTEROL [2]: 60.83 mg/dL
- CREATINE PHOSPHOKINASE [2]: 213 u/L
- CREATININE [2]: 0.2 mg/dL
- GLUCOSE [2]: 166.67 mg/dL
- LACTATE DEHYDROGENASE [2]: 94.5 u/L
- LIPASE [2]: 10.5 u/L
- PHOSPHORUS [2]: 9.98 mg/dL
- POTASSIUM [2]: 5.3 MEQ/L
- SODIUM [2]: 140.77 MEQ/L
- TOTAL BILIRUBIN [2]: 0.15 mg/dL
- TOTAL PROTEIN [2]: 5.88 G/DL
- URIC ACID [2]: 0.82 mg/dL
- ABSOLUTE BASOPHIL [3]: 0 CELLS/uL
- ABSOLUTE EOSINOPHIL [3]: 54.67 CELLS/uL
- ABSOLUTE LYMPHOCYTE [3]: 18655.83 CELLS/uL
- ABSOLUTE MONOCYTE [3]: 720.5 CELLS/uL
- ABSOLUTE SEGMENTED NEUTROPHIL [3]: 2902.33 CELLS/uL
- BASOPHIL [3]: 0%
- EOSINOPHIL [3]: 0.33%
- ERYTHROCYTE COUNT [3]: 6.41 x10E6/uL
- HEMATOCRIT [3]: 39.98%
- HEMOGLOBIN [3]: 14.27 G/DL
- LEUKOCYTE COUNT [3]: 22.33 x10E3/uL
- LYMPHOCYTE [3]: 84.17%
- MEAN CORPUSCULAR HEMOGLOBIN [3]: 22.4 pg
- MEAN CORPUSCULAR HEMOGLOBIN CONCENTRATION [3]: 35.92 G/DL
- MEAN CORPUSCULAR VOLUME [3]: 62.38 fL
- MONOCYTE [3]: 3.17%
- NEUTROPHIL [3]: 12.33%
- NUCLEATED RED BLOOD CELLS [3]: 0 /100WBC
- PLATELET COUNT [3]: 844.83 x10E3/uL
- ALANINE AMINOTRANSFERASE [3]: 264.83 u/L
- ALBUMIN [3]: 3.62 G/DL
- ALKALINE PHOSPHATASE [3]: 660.67 u/L
- ASPARTATE AMINOTRANSFERASE [3]: 415.67 u/L
- BLOOD UREA NITROGEN [3]: 12.67 mg/dL
- CARBON DIOXIDE [3]: 28.83 mmol/L
- CHLORIDE [3]: 98 MEQ/L
- CHOLESTEROL [3]: 282.33 mg/dL
- CREATINE PHOSPHOKINASE [3]: 281.83 u/L
- CREATININE [3]: 0.18 mg/dL
- GLUCOSE [3]: 117.33 mg/dL
- LACTATE DEHYDROGENASE [3]: 160.33 u/L
- LIPASE [3]: 11.33 u/L
- PHOSPHORUS [3]: 9.08 mg/dL
- POTASSIUM [3]: 6.45 MEQ/L
- SODIUM [3]: 141.7 MEQ/L
- TOTAL BILIRUBIN [3]: 3.02 mg/dL
- TOTAL PROTEIN [3]: 6.22 G/DL
- URIC ACID [3]: 0.85 mg/dL
